Target: T1, human β3 adrenergic receptor (Homo sapiens, UniProt P13945)
T1 construct: expressed in transfected cells; host or cells: DXB-11 Chinese hamster ovary (CHO) cell line, stably transfected (phd expression vector)
Test: whole cell receptor coupled c-AMP assay, human β3 receptor in CHO cells (EC50, Emax relative to isoproterenol)
Format: cell-based
Outline: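 Stably transfected DXB-11 CHO cells (20,000/well) were exposed to compound for 20 min at 37 °C in HBSS/HEPES buffer with 1 mM IBMX, pH 7.4. cAMP was measured by SPA. EC50 came from a four-parameter logistic fit, and Emax is the maximal response as a percentage of isoproterenol's.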

[1] = Emax ± standard error of the mean, average of at least 3 runs except where n = 1, compound tested in the isolated form listed
[2] = % intrinsic activity relative to isoproterenol maximal response, average of at least 3 runs, c-AMP in transfected CHO cells
[3] = Emax ± SEM, average of at least 3 runs except as otherwise indicated, tested as the isolated form listed

T1 sequence (P13945 whole entry): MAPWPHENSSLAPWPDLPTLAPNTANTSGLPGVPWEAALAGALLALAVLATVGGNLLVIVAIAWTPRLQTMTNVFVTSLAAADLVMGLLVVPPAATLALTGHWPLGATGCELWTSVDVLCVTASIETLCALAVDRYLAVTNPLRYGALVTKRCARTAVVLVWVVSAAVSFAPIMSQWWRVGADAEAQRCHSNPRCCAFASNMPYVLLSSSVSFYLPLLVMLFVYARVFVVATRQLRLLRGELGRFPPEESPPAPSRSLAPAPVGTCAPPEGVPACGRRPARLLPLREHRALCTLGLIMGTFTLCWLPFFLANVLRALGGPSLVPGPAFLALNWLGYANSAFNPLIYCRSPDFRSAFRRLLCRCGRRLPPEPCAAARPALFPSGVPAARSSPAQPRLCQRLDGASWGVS

| Emax (%) ± SEM [1] | other results | Compound |
| --- | --- | --- |
| 56.3 ± 1.4% |  | CC(C)(Cc1ccc(Oc2ncc(C(F)(F)F)cc2Cl)cc1)NC[C@H](O)COc1ccccc1-c1ccno1.O=C(O)C(F)(F)F [Example 160] |
| 60.3 ± 3.9% |  | CCOC(=O)c1cccnc1Oc1ccc(CC(C)(C)NC[C@H](O)COc2ccccc2-c2ccno2)cc1 [Example 110] |
| 84.3 ± 5.3% |  | CCOC(=O)c1cccnc1Oc1ccc(CC(C)(C)NC[C@H](O)COc2ccccc2-c2cccs2)cc1 [Example 107] |
| 83.0 ± 4.0% |  | CC(C)(Cc1ccc(Oc2cccnc2C(N)=O)cc1)NC[C@H](O)COc1ccccc1-c1ccns1.O=C(O)C(F)(F)F [Example 199] |
|  | Emax (%) ± SEM [2]: 78.7 ± 14.9% | CC(C)(Cc1ccc(Oc2ncccc2C(N)=O)cc1)NC[C@H](O)COc1ccccc1-c1cc2ccccc2s1.O=C(O)C(F)(F)F [Example 387] |
|  | Emax (%) ± SEM [3]: 68.8 ± 6.5% | CC(C)(Cc1ccc(Oc2ccc(C#N)cn2)cc1)NC[C@H](O)COc1ccccc1-c1ccoc1.Cl [Example 305] |
| 36.8 n = 1% |  | CC(C)(Cc1ccc(Oc2ncccc2C(N)=O)cc1)NC[C@H](O)COc1ccccc1-c1ccn[nH]1 [Example 74] |
| 30.4 ± 2.5% |  | CC(C)(Cc1ccc(Oc2ccc(C(N)=O)cn2)cc1)NC[C@H](O)COc1ccccc1-c1cc2ccccc2[nH]1 [Example 20] |
|  | Emax (%) ± SEM [2]: 58.5 ± 6.9% | CC(C)(Cc1ccc(Oc2ncccc2C(N)=O)cc1)NC[C@H](O)COc1ccccc1-c1ccsc1.O=C(O)C(F)(F)F [Example 381] |
| 80.7 ± 4.4% |  | CC(C)(Cc1ccc(Oc2ncccc2C(N)=O)cc1)NC[C@H](O)COc1ccccc1-c1cccs1.Cl [Example 69] |
| 56.0 ± 2.9% |  | CC(C)(Cc1ccc(Oc2ccc(C#N)nc2)cc1)NC[C@H](O)COc1ccccc1-c1cccs1.O=C(O)C(F)(F)F [Example 220] |
| 47.9 ± 3.5% |  | CC(C)(Cc1ccc(Oc2ccccc2C#N)cc1)NC[C@H](O)COc1ccccc1-c1cscn1.Cl [Example 243] |
| 57.6 ± 7.1% |  | CC(C)(Cc1ccc(Oc2ccc(S(C)(=O)=O)cc2Cl)cc1)NC[C@H](O)COc1ccccc1-c1nccs1.O=C(O)C(F)(F)F [Example 182] |
| 50.5 ± 0.8% |  | CC(C)(Cc1ccc(Oc2ncc(C(F)(F)F)cc2Cl)cc1)NC[C@H](O)COc1ccccc1-c1cscn1.Cl [Example 254] |
|  | Emax (%) ± SEM [3]: 71.2 ± 5.8% | CC(C)(Cc1ccc(Oc2ncccc2C(N)=O)cc1)NC[C@H](O)COc1ccccc1-c1ncco1.Cl [Example 308] |
| 53.2 ± 4.8% |  | CC(C)(Cc1ccc(Oc2ccc(S(C)(=O)=O)cc2)cc1)NC[C@H](O)COc1ccccc1-c1cccs1.O=C(O)C(F)(F)F [Example 129] |
|  | Emax (%) ± SEM [2]: 64.0 ± 6.0% | CC(C)(Cc1ccc(Oc2ncccc2C(N)=O)cc1)NC[C@H](O)COc1ccccc1-c1ccsc1.Cl [Example 446] |
| 61.4 ± 4.4% |  | CCOC(=O)c1cccnc1Oc1ccc(CC(C)(C)NC[C@H](O)COc2ccccc2-c2nccs2)cc1 [Example 109] |
| 68.9 ± 3.1% |  | CC(C)(Cc1ccc(Oc2ccccc2C#N)cc1)NC[C@H](O)COc1ccccc1-c1ccno1.O=C(O)C(F)(F)F [Example 212] |
| 46.6 ± 4.2% |  | CC(C)(Cc1ccc(Oc2cnccn2)cc1)NC[C@H](O)COc1ccccc1-c1ccno1.O=C(O)C(F)(F)F [Example 155] |

| Emax (%) ± SEM [1] | other results | Compound |
| --- | --- | --- |
| 59.0 ± 10.0% |  | CCOC(=O)c1ccc(Oc2ccc(CC(C)(C)NC[C@H](O)COc3ccccc3-c3nccs3)cc2)c(Cl)c1.O=C(O)C(F)(F)F [Example 222] |
| 48.0 ± 2.0% |  | CC(C)(Cc1ccc(Oc2ncccc2C(N)=O)cc1)NC[C@H](O)COc1ccccc1-c1cc2ccccc2[nH]1 [Example 21] |
| 46.0 ± 1.7% |  | CC(C)(Cc1ccc(Oc2cccc(Cl)n2)cc1)NC[C@H](O)COc1ccccc1-c1ccno1.O=C(O)C(F)(F)F [Example 177] |
| 38.8 ± 1.4% |  | CC(C)(Cc1ccc(Oc2ccc(C(N)=O)cn2)cc1)NC[C@H](O)COc1ccccc1-n1ccc(C=O)c1 [Example 274] |
|  | Emax (%) ± SEM [2]: 20.3 ± 2.0% | CC(C)(Cc1ccc(Oc2ccc(C(N)=O)cn2)cc1)NC[C@H](O)COc1ccccc1-c1cccnc1 [Example 389] |
|  | Emax (%) ± SEM [2]: 43.1 ± 4.3% | CC(C)(Cc1ccc(Oc2ccc(C(N)=O)cn2)cc1)NC[C@H](O)COc1ccccc1-c1cc2ccccc2s1 [Example 385] |
|  | Emax (%) ± SEM [2]: 17.6 ± 0.4% | CC(C)(Cc1ccc(Oc2ccc(S(C)(=O)=O)cc2)cc1)NC[C@H](O)COc1ccccc1-c1cccnc1.Cl.Cl [Example 392] |
| 17.5 n = 1% |  | CC(C)(Cc1ccc(Oc2ccc(C(N)=O)cn2)cc1)NC[C@H](O)COc1ccc(-c2ccno2)cc1 [Example 36] |
| 60.4 ± 5.1% |  | CC(C)(Cc1ccc(Oc2ncccc2C(N)=O)cc1)NC[C@H](O)COc1ccccc1-c1nc2ccccc2o1 [Example 81] |
| 21.0 ± 3.4% |  | CC(C)(Cc1ccc(Oc2ncccc2C#N)cc1)NC[C@H](O)COc1ccccc1N1CCCC1=O [Example 58] |
| 37.8 ± 9.2% |  | CC(C)(Cc1ccc(Oc2ccc(S(N)(=O)=O)cc2F)cc1)NC[C@H](O)COc1ccccc1-c1nccs1.O=C(O)C(F)(F)F [Example 226] |
| 52.6 ± 2.5% |  | CC(C)(Cc1ccc(Oc2ncccc2C#N)cc1)NC[C@H](O)COc1ccc(F)cc1-c1cccs1.O=C(O)C(=O)O [Example 63] |
| 24.6 ± 3.8% |  | CC(C)(Cc1ccc(Oc2ccc(C#N)cn2)cc1)NC[C@H](O)COc1ccccc1-c1cccs1.O=C(O)C(=O)O [Example 285] |
| 40.4 ± 8.8% |  | CC(C)(Cc1ccc(Oc2ccc(C(F)(F)F)cc2Cl)cc1)NC[C@H](O)COc1ccccc1-c1ccno1.O=C(O)C(F)(F)F [Example 172] |
|  | Emax (% intrinsic activity relative to isoproterenol maximal response, SEM in brackets, c-AMP in transfected CHO cells): 79.9% | CC(C)(Cc1ccc(Oc2cccnc2C(N)=O)cc1)NC[C@H](O)COc1ccccc1-c1ccc(C(=O)O)s1 [Example 448] |
| 76.9 ± 7.4% |  | CC(C)(Cc1ccc(Oc2ncc(C(F)(F)F)cc2Cl)cc1)NC[C@H](O)COc1ccccc1-c1cccs1.O=C(O)C(F)(F)F [Example 159] |
| <10% |  | CC(C)(Cc1ccc(Oc2ccc(C(N)=O)cn2)cc1)NC[C@H](O)COc1cccc(-c2cc[nH]n2)c1 [Example 34] |
|  | Emax (%) ± SEM [2]: 74.4 ± 7.0% | CC(C)(Cc1ccc(Oc2ccc(C(N)=O)cn2)cc1)NC[C@H](O)COc1ccccc1-c1ccco1.Cl [Example 412] |
| 48.1 ± 3.8% |  | CC(C)(Cc1ccc(Oc2ccc(C(F)(F)F)cn2)cc1)NC[C@H](O)COc1ccccc1-c1ccno1.O=C(O)C(F)(F)F [Example 195] |
